“Also recorded” adds a separate entry of the source.
Test system: HT29 cells
Assay type: cell-based, human

CCC(=C/[C@H](C)C/C=C/C(C)=C/[C@@H](C)C(=O)[C@@H](C)[C@H](O)[C@@H](C)C/C(C)=C/C(=O)O)/C=C/[C@@H]1OC(=O)C=C[C@@H]1C [Leptomycin B]
cell killing ability of MYXV: further enhanced the cell killing ability of MYXV | cell viability (ATP), Leptomycin B pretreatment plus MYXV: further reduced the viability; also recorded: reduced cell viability | cell viability (ATP) (64 h): sensitive to Leptomycin B treatment alone

— US12691151B2, “Methods and compositions for improving oncolytic virus infection for nonpermissive cancers” (Arizona Board of Regents on behalf of Arizona State …, priority 2019, dated 2026)
